Test results: the Kinase Knowledgebase extract (Sharma et al. 2016)

molecular target: ROCK2 (human) (UniProt O75116); assay: Inhibition of ROCK2 Kinase Activity
Sequence (O75116 whole entry, looked up): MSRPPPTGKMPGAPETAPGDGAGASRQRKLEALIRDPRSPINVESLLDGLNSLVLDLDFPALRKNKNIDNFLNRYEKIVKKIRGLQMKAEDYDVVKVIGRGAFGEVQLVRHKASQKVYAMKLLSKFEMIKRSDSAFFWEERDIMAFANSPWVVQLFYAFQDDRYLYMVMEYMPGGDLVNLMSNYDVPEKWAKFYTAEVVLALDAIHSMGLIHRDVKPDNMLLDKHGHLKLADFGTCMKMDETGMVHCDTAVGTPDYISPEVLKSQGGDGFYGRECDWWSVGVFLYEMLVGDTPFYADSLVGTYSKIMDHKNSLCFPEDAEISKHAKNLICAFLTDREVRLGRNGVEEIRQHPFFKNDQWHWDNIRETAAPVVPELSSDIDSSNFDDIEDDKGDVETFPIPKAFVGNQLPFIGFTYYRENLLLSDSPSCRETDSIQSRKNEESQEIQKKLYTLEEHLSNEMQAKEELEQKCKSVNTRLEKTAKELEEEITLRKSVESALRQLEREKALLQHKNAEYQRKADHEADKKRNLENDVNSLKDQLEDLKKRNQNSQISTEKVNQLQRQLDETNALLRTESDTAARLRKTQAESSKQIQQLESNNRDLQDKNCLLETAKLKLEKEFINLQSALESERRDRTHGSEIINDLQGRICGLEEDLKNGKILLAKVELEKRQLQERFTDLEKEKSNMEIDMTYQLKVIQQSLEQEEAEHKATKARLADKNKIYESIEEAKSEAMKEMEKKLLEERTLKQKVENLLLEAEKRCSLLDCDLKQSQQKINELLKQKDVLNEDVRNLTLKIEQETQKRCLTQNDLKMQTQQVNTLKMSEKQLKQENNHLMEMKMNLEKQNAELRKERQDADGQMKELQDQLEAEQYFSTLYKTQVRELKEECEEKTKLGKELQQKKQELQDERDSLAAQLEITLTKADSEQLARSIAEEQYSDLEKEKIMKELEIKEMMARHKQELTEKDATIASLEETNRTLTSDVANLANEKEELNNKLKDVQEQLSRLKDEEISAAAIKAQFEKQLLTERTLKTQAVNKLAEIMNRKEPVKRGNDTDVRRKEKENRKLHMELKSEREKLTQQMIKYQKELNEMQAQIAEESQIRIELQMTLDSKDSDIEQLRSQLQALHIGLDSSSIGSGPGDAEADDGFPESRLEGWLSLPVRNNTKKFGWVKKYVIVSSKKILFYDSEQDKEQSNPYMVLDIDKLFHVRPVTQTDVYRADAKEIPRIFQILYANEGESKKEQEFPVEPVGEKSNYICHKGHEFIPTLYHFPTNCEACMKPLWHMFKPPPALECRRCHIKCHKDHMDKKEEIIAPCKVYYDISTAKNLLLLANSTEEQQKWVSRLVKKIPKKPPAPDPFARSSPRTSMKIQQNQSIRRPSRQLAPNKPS

Row | Structure (SMILES) | IC50 [nM]
1 | NC(c1ccc(C(=O)Nc2ccncc2)cc1)C1CCCN1C(=O)C(c1ccccc1)C1CCCC1 (stereo unspecified) | 500 to 5000
2 | CC(NC(=O)CC(N)c1ccc(C(=O)Nc2ccncc2)cc1)c1ccccc1 (stereo unspecified) | 50 to 500
3 | Cc1ccc(C)c(CNC(=O)CC(N)c2ccc(C(=O)Nc3ccncc3)cc2)c1 (stereo unspecified) | 50 to 500
4 | NC(c1ccc(C(=O)Nc2ccncc2)cc1)C1CCCN1C(=O)Cc1cc(F)cc(F)c1 (stereo unspecified) | 500 to 5000
5 | NC(c1ccc(C(=O)Nc2ccncc2)cc1)C1CCCN1C(=O)Cc1ccc(F)cc1 (stereo unspecified) | 500 to 5000
6 | NC(CC(=O)NC1CCCCC1)c1ccc(C(=O)Nc2ccncc2)cc1 (stereo unspecified) | 50 to 500
7 | NC(c1ccc(C(=O)Nc2ccncc2)cc1)C1CCCN1C(=O)C1CCc2ccccc21 (stereo unspecified) | 500 to 5000
8 | NC(c1ccc(C(=O)Nc2ccncc2)cc1)C1CCCN1C(=O)C1(c2ccc(Cl)cc2Cl)CC1 (stereo unspecified) | 500 to 5000
9 | NC(c1ccc(C(=O)Nc2ccncc2)cc1)C1CCCN1C(=O)Cc1c(F)cccc1F (stereo unspecified) | 500 to 5000
10 | NC(CC(=O)NC1c2ccccc2-c2ccccc21)c1ccc(C(=O)Nc2ccncc2)cc1 (stereo unspecified) | 50 to 500
11 | Cc1cccc(CN2CCC(NC(=O)CC(N)c3ccc(C(=O)Nc4ccncc4)cc3)CC2)c1 (stereo unspecified) | 50 to 500
12 | CN(CC(N)c1ccc(C(=O)Nc2ccncc2)cc1)C(=O)Cc1csc2ccccc12 (stereo unspecified) | 500 to 5000
13 | NC(CC(=O)NC1CCc2ccccc21)c1ccc(C(=O)Nc2ccncc2)cc1 (stereo unspecified) | 50 to 500
14 | NC(c1ccc(C(=O)Nc2ccncc2)cc1)C1CCCN1C(=O)Cc1ccc(-c2ccccc2)cc1 (stereo unspecified) | 500 to 5000
15 | CC(C)(C)NC(=O)NCC(N)c1ccc(C(=O)Nc2ccncc2)cc1 (stereo unspecified) | 500 to 5000
16 | Cc1cccc(Cl)c1CNC(=O)CC(N)c1ccc(C(=O)Nc2ccncc2)cc1 (stereo unspecified) | 50 to 500
17 | CN(CC(N)c1ccc(C(=O)Nc2ccncc2)cc1)C(=O)Cc1ccc2c(c1)OCO2 (stereo unspecified) | 500 to 5000
18 | CN(CC(N)c1ccc(C(=O)Nc2ccncc2)cc1)C(=O)C1CC(=O)c2ccccc21 (stereo unspecified) | 500 to 5000
19 | CN(CC(N)c1ccc(C(=O)Nc2ccncc2)cc1)C(=O)Cc1csc(-c2ccccc2)n1 (stereo unspecified) | 500 to 5000
20 | N[C@H](CC(=O)NC1COc2ccccc21)c1ccc(C(=O)Nc2ccncc2)cc1 (stereo partly specified) | < 50
21 | NC(CNC(=O)c1cccc(S(=O)(=O)Nc2ccccc2)c1)c1ccc(C(=O)Nc2ccncc2)cc1 (stereo unspecified) | 500 to 5000
22 | NC(CNC(=O)Cc1c[nH]c2ccccc12)c1ccc(C(=O)Nc2ccncc2)cc1 (stereo unspecified) | 50 to 500
23 | CCCCNNC(=O)CC(N)c1ccc(C(=O)Nc2ccncc2)cc1 (stereo unspecified) | 50 to 500
24 | CCOc1ccccc1CCNC(=O)CC(N)c1ccc(C(=O)Nc2ccncc2)cc1 (stereo unspecified) | 50 to 500
25 | CN(CC(N)c1ccc(C(=O)Nc2ccncc2)cc1)C(=O)Cc1ccccc1F (stereo unspecified) | 500 to 5000
26 | NC(CNC(=O)c1ccccc1Nc1ccccc1)c1ccc(C(=O)Nc2ccncc2)cc1 (stereo unspecified) | 500 to 5000
27 | CN(CC(N)c1ccc(C(=O)Nc2ccncc2)cc1)C(=O)Cc1ccc(Cl)c(Cl)c1 (stereo unspecified) | 500 to 5000

Row | Structure (SMILES) | IC50 [nM]
28 | Cc1ccc2[nH]cc(CCNC(=O)CC(N)c3ccc(C(=O)Nc4ccncc4)cc3)c2c1 (stereo unspecified) | 50 to 500
29 | CN(CC(N)c1ccc(C(=O)Nc2ccncc2)cc1)C(=O)C1CCCc2sccc21 (stereo unspecified) | 500 to 5000
30 | NC(c1ccc(C(=O)Nc2ccncc2)cc1)C1CCCN1C(=O)C1CC(=O)c2ccccc21 (stereo unspecified) | 500 to 5000
31 | COc1cc(Br)ccc1CCNC(=O)CC(N)c1ccc(C(=O)Nc2ccncc2)cc1 (stereo unspecified) | 50 to 500
32 | NC(CC(=O)NCCc1ccc2c(c1)OCO2)c1ccc(C(=O)Nc2ccncc2)cc1 (stereo unspecified) | 50 to 500
33 | NC(CNC(=O)CNC(=O)c1ccccc1)c1ccc(C(=O)Nc2ccncc2)cc1 (stereo unspecified) | 50 to 500
34 | N[C@H](CC(=O)N[C@@H]1COc2ccccc21)c1ccc(C(=O)Nc2ccncc2)cc1 | < 50
35 | NC(CNC(=O)Nc1ccc(-c2ccccc2)cc1)c1ccc(C(=O)Nc2ccncc2)cc1 (stereo unspecified) | 500 to 5000
36 | CN(CC(N)c1ccc(C(=O)Nc2ccncc2)cc1)C(=O)Cc1cccc(Cl)c1F (stereo unspecified) | 500 to 5000
37 | CN(CC(N)c1ccc(C(=O)Nc2ccncc2)cc1)C(=O)Cc1cccc(Br)c1 (stereo unspecified) | 500 to 5000
38 | NC(CC(=O)N(CCc1ccccc1)Cc1ccccc1)c1ccc(C(=O)Nc2ccncc2)cc1 (stereo unspecified) | 50 to 500
39 | CCNC(=O)CC(N)c1ccc(C(=O)Nc2ccncc2)cc1 (stereo unspecified) | 50 to 500
40 | NC(CNC(=O)CNC(=O)c1ccco1)c1ccc(C(=O)Nc2ccncc2)cc1 (stereo unspecified) | 50 to 500
41 | CN(CC(N)c1ccc(C(=O)Nc2ccncc2)cc1)C(=O)C(C)(C)c1ccc(Cl)cc1 (stereo unspecified) | 500 to 5000
42 | NC(CNC(=O)Cc1csc(-c2ccccc2)n1)c1ccc(C(=O)Nc2ccncc2)cc1 (stereo unspecified) | 50 to 500
43 | NC(CNC(=O)CSc1ncccn1)c1ccc(C(=O)Nc2ccncc2)cc1 (stereo unspecified) | 500 to 5000
44 | CCSCC(=O)NCC(N)c1ccc(C(=O)Nc2ccncc2)cc1 (stereo unspecified) | 50 to 500
45 | Cc1ccc(CN2CCC(NC(=O)CC(N)c3ccc(C(=O)Nc4ccncc4)cc3)CC2)s1 (stereo unspecified) | 50 to 500
46 | NC(c1ccc(C(=O)Nc2ccncc2)cc1)C1CCCN1C(=O)Cc1cc(F)ccc1F (stereo unspecified) | 500 to 5000
47 | CN(C)CCCC(=O)NCC(N)c1ccc(C(=O)Nc2ccncc2)cc1 (stereo unspecified) | 500 to 5000
48 | NC(c1ccc(C(=O)Nc2ccncc2)cc1)C1CCCN1C(=O)Cc1csc2ccccc12 (stereo unspecified) | 50 to 500
49 | CN(CC(N)c1ccc(C(=O)Nc2ccncc2)cc1)C(=O)C1CCc2ccccc21 (stereo unspecified) | 500 to 5000
50 | CN(CC(N)c1ccc(C(=O)Nc2ccncc2)cc1)C(=O)Cc1cccc(F)c1F (stereo unspecified) | 500 to 5000
51 | NC(c1ccc(C(=O)Nc2ccncc2)cc1)C1CCCN1C(=O)Cc1ccc(F)c(Cl)c1 (stereo unspecified) | 50 to 500
52 | CC[C@@H](NC(=O)CC(N)c1ccc(C(=O)Nc2ccncc2)cc1)c1ccccc1 (stereo partly specified) | 50 to 500
53 | CN(CC(N)c1ccc(C(=O)Nc2ccncc2)cc1)C(=O)C(C)(C)c1ccc(F)cc1 (stereo unspecified) | 500 to 5000
54 | CN(CC(N)c1ccc(C(=O)Nc2ccncc2)cc1)C(=O)C(C)(C)c1cccs1 (stereo unspecified) | 500 to 5000

The next lines start with the values.

Row | IC50 [nM] | Structure (SMILES)
55 | 500 to 5000 | NC(CNC(=O)Cc1ccc2ccccc2c1)c1ccc(C(=O)Nc2ccncc2)cc1 (stereo unspecified)
56 | 500 to 5000 | Cc1ccc(C(=O)NCC(N)c2ccc(C(=O)Nc3ccncc3)cc2)s1 (stereo unspecified)
57 | 50 to 500 | COc1ccc(CC(=O)NCC(N)c2ccc(C(=O)Nc3ccncc3)cc2)cc1F (stereo unspecified)
58 | 50 to 500 | CCC(Oc1ccccc1)C(=O)NCC(N)c1ccc(C(=O)Nc2ccncc2)cc1 (stereo unspecified)
59 | 500 to 5000 | COCC(=O)NCC(N)c1ccc(C(=O)Nc2ccncc2)cc1 (stereo unspecified)
60 | 50 to 500 | N[C@@H](CC(=O)N[C@H]1CCCc2ccccc21)c1ccc(C(=O)Nc2ccncc2)cc1
61 | 500 to 5000 | NC(CNC(=S)Nc1ccc(OC(F)(F)F)cc1)c1ccc(C(=O)Nc2ccncc2)cc1 (stereo unspecified)
62 | 50 to 500 | NC(CNC(=O)c1ccsc1)c1ccc(C(=O)Nc2ccncc2)cc1 (stereo unspecified)
63 | 50 to 500 | NC(CC(=O)Nc1ccc(CO)cc1)c1ccc(C(=O)Nc2ccncc2)cc1 (stereo unspecified)
64 | 50 to 500 | NC(CC(=O)NCc1ccccc1F)c1ccc(C(=O)Nc2ccncc2)cc1 (stereo unspecified)
65 | 50 to 500 | CC(=NOCC(=O)NCC(N)c1ccc(C(=O)Nc2ccncc2)cc1)c1ccccc1 (stereo unspecified)
66 | 500 to 5000 | Cc1ncccc1C(=O)NCC(N)c1ccc(C(=O)Nc2ccncc2)cc1 (stereo unspecified)
67 | 500 to 5000 | CC(C)(C(=O)NC[C@H](N)c1ccc(C(=O)Nc2ccncc2)cc1)c1ccc(Cl)cc1
68 | 50 to 500 | NC(CNC(=O)C1(c2ccc(F)cc2F)CC1)c1ccc(C(=O)Nc2ccncc2)cc1 (stereo unspecified)
69 | 500 to 5000 | COC1CCC(C(=O)NCC(N)c2ccc(C(=O)Nc3ccncc3)cc2)CC1 (stereo unspecified)
70 | 50 to 500 | COc1ccc(CNC(=O)CC(N)c2ccc(C(=O)Nc3ccncc3)cc2)cc1OC (stereo unspecified)
71 | 500 to 5000 | CNS(=O)(=O)c1ccc(C(=O)NCC(N)c2ccc(C(=O)Nc3ccncc3)cc2)cc1 (stereo unspecified)
72 | 500 to 5000 | NC(CNC(=O)C1CCCO1)c1ccc(C(=O)Nc2ccncc2)cc1 (stereo unspecified)
73 | 50 to 500 | NC(CC(=O)NCc1ccc([N+](=O)[O-])cc1)c1ccc(C(=O)Nc2ccncc2)cc1 (stereo unspecified)
74 | 500 to 5000 | NC(CNC(=O)c1cccc2ccccc12)c1ccc(C(=O)Nc2ccncc2)cc1 (stereo unspecified)
75 | 500 to 5000 | CC(C)(C)c1ccc(NC(=O)NCC(N)c2ccc(C(=O)Nc3ccncc3)cc2)cc1 (stereo unspecified)
76 | 50 to 500 | COc1ccc(C2(C(=O)NCC(N)c3ccc(C(=O)Nc4ccncc4)cc3)CCCC2)cc1 (stereo unspecified)
77 | 50 to 500 | NC(CNC(=S)Nc1ccccc1)c1ccc(C(=O)Nc2ccncc2)cc1 (stereo unspecified)
78 | 500 to 5000 | Cc1cccc(C(=O)NCC(N)c2ccc(C(=O)Nc3ccncc3)cc2)c1 (stereo unspecified)

Row | IC50 [nM] | Structure (SMILES)
79 | 500 to 5000 | CN(CC(N)c1ccc(C(=O)Nc2ccncc2)cc1)C(=O)C1CCCc2ccccc21 (stereo unspecified)
80 | 50 to 500 | NC(CC(=O)NCc1ccc(OC(F)(F)F)cc1)c1ccc(C(=O)Nc2ccncc2)cc1 (stereo unspecified)
81 | 50 to 500 | NC(CNC(=O)c1ccc2ccccc2c1)c1ccc(C(=O)Nc2ccncc2)cc1 (stereo unspecified)
82 | 500 to 5000 | N#Cc1cccc(C(=O)NCC(N)c2ccc(C(=O)Nc3ccncc3)cc2)c1 (stereo unspecified)
83 | 500 to 5000 | NC(c1ccc(C(=O)Nc2ccncc2)cc1)C1CCCN1C(=O)C1(c2ccc(F)cc2)CCC1 (stereo unspecified)
84 | 50 to 500 | NC(CNC(=O)CCC1CCCC1)c1ccc(C(=O)Nc2ccncc2)cc1 (stereo unspecified)
85 | 500 to 5000 | NC(CNC(=O)Cc1c(F)cccc1F)c1ccc(C(=O)Nc2ccncc2)cc1 (stereo unspecified)
86 | 50 to 500 | NC(CNC(=O)C1(c2ccc(F)c(F)c2)CCCC1)c1ccc(C(=O)Nc2ccncc2)cc1 (stereo unspecified)
87 | 50 to 500 | NC(CNC(=O)C1CCOc2ccccc21)c1ccc(C(=O)Nc2ccncc2)cc1 (stereo unspecified)
88 | 500 to 5000 | Cc1ccccc1NC(=S)NCC(N)c1ccc(C(=O)Nc2ccncc2)cc1 (stereo unspecified)
89 | 50 to 500 | NC(CNC(=O)C1(c2ccsc2)CC1)c1ccc(C(=O)Nc2ccncc2)cc1 (stereo unspecified)
90 | 500 to 5000 | CCN(CC)c1ccc(C(=O)NCC(N)c2ccc(C(=O)Nc3ccncc3)cc2)cc1 (stereo unspecified)
91 | 500 to 5000 | N[C@@H](CNC(=O)C1(c2ccc(F)cc2)CCCC1)c1ccc(C(=O)Nc2ccncc2)cc1
92 | 50 to 500 | CC(C)(C(=O)NCC(N)c1ccc(C(=O)Nc2ccncc2)cc1)c1ccc(F)c(Cl)c1 (stereo unspecified)
93 | 500 to 5000 | CN(CC(N)c1ccc(C(=O)Nc2ccncc2)cc1)C(=O)C1(c2ccc(F)c(Cl)c2)CC1 (stereo unspecified)
94 | 500 to 5000 | NC(CNC(=O)C1CCCC1)c1ccc(C(=O)Nc2ccncc2)cc1 (stereo unspecified)
95 | 500 to 5000 | NC(CNC(=O)c1ccc2cc[nH]c2c1)c1ccc(C(=O)Nc2ccncc2)cc1 (stereo unspecified)
96 | 500 to 5000 | NC(CNC(=O)c1ccc(=O)[nH]n1)c1ccc(C(=O)Nc2ccncc2)cc1 (stereo unspecified)
97 | 50 to 500 | NC(CC(=O)N[C@H]1CCc2ccccc21)c1ccc(C(=O)Nc2ccncc2)cc1 (stereo partly specified)
98 | 50 to 500 | NC(CC(=O)NCc1ccc(F)cc1)c1ccc(C(=O)Nc2ccncc2)cc1 (stereo unspecified)
99 | 500 to 5000 | NC(CNC(=O)c1c[nH]cn1)c1ccc(C(=O)Nc2ccncc2)cc1 (stereo unspecified)
100 | 500 to 5000 | NC(CNC(=O)[C@@H]1CCC(=O)N1)c1ccc(C(=O)Nc2ccncc2)cc1 (stereo partly specified)
101 | 50 to 500 | COc1cccc2cc(C(=O)NCC(N)c3ccc(C(=O)Nc4ccncc4)cc3)oc12 (stereo unspecified)
